Reference: patent publication US8541607B2, “Disulfide, sulfide, sulfoxide, and sulfone derivatives of cyclic sugars and uses thereof” (Lacer, S.A., priority 2003, dated 2013)
Read-outs that look alike come from different tables or passages of the source.

Legend:
[1] = test system: Rats, left carotid artery thrombosis (FeCl3); assay: In vivo synergistic antithrombotic effect, FeCl3 carotid artery thrombosis, single drugs and combinations; set-up: species or system rat; settings: for Rate of animals with thrombotic occlusion: control 1
Description: The method used is substantially the same as described by Kurz (Kurz K. D., at al., Thromb. Res. 1990, 60: 269-280) and modified by Feuerstein (Feuerstein G. Z., et al., Artherioscler, Thromb. Vasc. Biol. 1999, 19: 2554-25562). […]
Forty-five minutes after dosing administration, rats were anaesthetized with sodium pentobarbital (40 mg/kg, i.p.) and they were placed later dorsally on a heated (37° C.) surgical board.
The left carotid artery was isolated and a Parafilm M sheet (7×20 mm, American National Can) was placed under it. An electromagnetic sounding of flow (Transonic Systems Inc.) was placed on the artery to measure blood flow.
(§1) Sixty minutes after product administration, a paper patch saturated with FeCl3 solution (70%) was placed (and not removed for the whole duration of the experiment) on the left carotid artery downstream from the sounding of flow to initiate thrombosis. The blood flow was controlled during the 60 min later to the application of the patch in the artery.
The vessel was considered totally occluded by the thrombus formed when no blood flow was detected (0.0 ml/min). In this model, occlusive thrombus formation usually takes place within 15 to 20 minutes in non-treated animals.
The fractional product concept was used to identify synergy between the compounds. In accordance with this concept, if we consider the full protection of the animal as:
[formula] where A is the rate of animals with thrombotic occlusion in treated group; and B is the rate of animals with thrombotic occlusion in the control group.
For two drugs that act of independent way:
[formula] where A1 is the rate of animals with thrombotic occlusion in the treatment group A1; A2 is the rate of animals with thrombotic occlusion in the treatment group A2; and B is the rate of animals with thrombotic occlusion in the control group
If the protection obtained with the combination of the drugs is higher than the fractional inhibition for two compounds acting independently then synergism is considered to occur.
The results are shown in table 14 and are expressed as rate of animals with thrombotic occlusion in each group.

arterial rings = assay: Test of vasorelaxation on arterial rings contracted with phenylephrine; type: cell-based; settings: read-out: EC50 (vasodilatation equal to 50% of the maximum tone)
Description: The method used in the assays is substantially the same as described in following references: • * Furchgot, R. F., “Methods in nitric oxide research”; Feelisch & Stamler, eds., John Wiley & Sons, Chichester, England, pp 567-581. • * Trongvanbichnam K., et al., Jpn. J. Pharmacol. 71 (1996); 167-173. • * Sales, E., at al., Eur. J. Pharmacol. 258 (1994); 47-55.
The different compounds are tested at 5 different concentrations, at a concentration range from 0.0001 to 10 mM, using from 6 to 9 arterial rings for each compound. The obtained results are compared to those from the isosorbide 5-mononitrate, which is used as reference product.
The results are shown in table 1 below and are provided as EC50 (effective concentration 50), which is the concentration of each of the tested, compounds yielding a vasodilatation equal to 50% of the maximum tone at which the artery ring has been contracted with 1 μM of Phenylephrine.

[2] = test system: platelets (Human Platelet Rich Plasma); assay: In vitro inhibition of ADP-induced platelet aggregation; type: cell-based; settings: submaximal ADP (1-4 μM), mean ± s.d.
Description: The method used in the assays is substantially the same as described in following reference: • * Sales, E., at al., Br. J. Pharmacol. 112 (1994); 1071-1076.
The compounds are tested at four different concentrations, using platelet rich plasma from not less than 6 different healthy human donors. The results obtained are compared to those from 5-isosorbide mononitrate, which is used as reference product.
The results are shown in table 2 and are expressed as IC50 (inhibitory concentration 50), which is the concentration of each of the tested compounds yielding an inhibition equal to 50% of the aggregation obtained with a submaximal concentration (1-4 μM) of ADP (a submaximal concentration of ADP is the minimal amount of ADP which produces the maximal aggregation).

LDL = assay: Inhibition of LDL oxidation induced by haemin and H2O2 (conjugated dienes, 234 nm); type: biochemical, human; settings: compounds at 10 μM; 2.5 μM haemin and 5 μM H2O2; mean ± s.e.m.
Description: The method used in the assays to determine the effect of the compounds on LDL oxidation is substantially the same as described in the following references: • Sprenger T., et al., Chem. Phys. Lipids 1998; 91:39-52 • Lynch S. M., et al., Biochim. Biophys. Acta 2000; 1485:11-22 • Pedreño J., et al., Thromb. Res. 2000; 99: 51-60.
The method used in the assays to isolate LDL particles from fresh human plasma is substantially the same as described in Pedreño J., et al., Atherosclerosis 2001; 155: 99-112.
Oxidative modification of low-density lipoprotein (LDL) is currently believed to be a central event it the development of atherosclerotic cardiovascular disease. The exposition of LDL to globin-free haemin (the complex of ferric ion (Fe^3+) with protoporphyrin IX), derived from the haemoglobin in circulating erythrocytes, serves as a physiological source of pro-oxidant Fe^3+ capable to promoting LDL oxidation. The compounds were added in vitro to determine their inhibitory activity on LDL oxidation induced by haemin and H2O2. LDL at a final protein concentration of 0.2 mg/ml was incubated in the presence of 2.5 μM haemin and 5 μM H202. Oxidative modification of LDL particles was assessed by measurement of conjugated dienes. Experimental samples were incubated at 37° C. and the increase in absorbance at 234 nm was automatically recorded every 5 min for at least 5 h. The effect of compounds on the LDL oxidation induced by haemin was tested at 7 different concentrations using LDL preparations from 7 different healthy donors.

[3] = test system: heparinized plasma (plasma lipoproteins); assay: Inhibition of plasma oxidation induced by Cu2+ (absorbance 234 nm); type: biochemical; settings: compounds at 10 μM; 50 μM CuSO4; mean ± s.e.m.
Description: The method used in the assays to determine the effect of compounds on the capacity of oxidation of the plasma is substantially the same as described in Spranger T. et al., Chem Phys Lipids 1998; 91: 39-52.
Lipoprotein oxidation induced in vitro in plasma is expected to represent a relevant model of the lipoprotein oxidation in the arterial wall. Oxidation of plasma lipoproteins was assessed as the capacity of oxidation of heparinized plasma and was measured by spectrophotometry as in increase in absorbance at 234 nm. The compounds were added in vitro to determine their inhibitory activity over the capacity of oxidation of plasma induced by Cu^2+ (CuSO4). Heparinized plasma was diluted with phosphate-buffered saline solution (PBS) containing 0.16 M NaCl, and the oxidation was started by 50 μM CuSO4. Experimental samples were incubated at 37° C. and the increase in absorbance at 234 nm was automatically recorded every 15 min for at least 12 h. The effect of compounds over the capacity of oxidation of plasma induced by Cu^2+ was tested at 7 different concentrations using heparinizaded plasma from 7 different healthy donors.

[4] = test system: Rats, left carotid artery thrombosis (FeCl3); assay: In vivo antithrombotic effect, FeCl3 carotid artery thrombosis; set-up: species or system rat; settings: single oral dose of 100 mg/Kg; no occlusion during 60 min after FeCl3 patch
Description: The method used is substantially the same as described by Kurz (Kurz K. D., et al., Thromb. Res. 1990, 60:269-280) and modified by Feuerstein (Feuerstein G. Z., et al., Artherioscler. Thromb. Vase. Biol. 1999, 19: 2554-25562).
Rats received a single oral dose of 100 mg/Kg of the compounds.
Forty-five minutes after dosing rats were anaesthetized with sodium pentobarbital (40 mg/kg, i.p.) and they were placed later dorsally on a heated (37° C.) surgical board.
The left carotid artery was isolated and a Parafilm 4 sheet (7×20 mm, American National Can) was placed under it. An electromagnetic sounding of flow (Transonic Systems Inc.) was placed on the artery to measure blood flow.
as §1
The vessel was considered totally occluded by the thrombus formed when no blood flow was detected (0.0 ml/min). In this model, thrombus formation usually takes place within 15 to 20 minutes in non-treated animals.

[5] = test system: heart (AVP-induced coronary vasoconstriction); assay: In vivo protection against ischemia-reperfusion damage in the heart (arginine-vasopressin induced S-wave depression); settings: p.o.; for S-wave decrement: 1 h before AVP 0.3 U/kg, vehicle 46.2 ± 4.9
Description: Experiments were performed according to the model previously described by Hirata Y at al (Journal of Cardiovascular Pharmacology, 1998, 31: 322-326)
After a food fasting period of 6 hours, animals were divided into groups of at least 8 animals each. Doses of products were given by oral sounding 1 h before the ischemia induction. Animals were anaesthetized with pentobarbital (40 mg/kg, i.p.) and the standard limb lead II electrocardiogram was recorded to detect the S-wave depression. 0.3 U/kg arginine-vasopressin (AVP) (Sigma Chemicals, St Louis, Mo., USA) was injected into the carotid artery to induce vasoconstriction of small coronary arteries and increase in coronary resistance. In all the groups received AVP 60 min after, the test drug. In all groups, after AVP injection of 10 minutes ECG recording was performed.
The results are shown in table 16 and are expressed as S-wave decrements (μvolts).

HUVEC cells = assay: In vitro protection against cytotoxicity induced by oxygen radicals (peroxynitrite), XTT method; type: cell-based, human; settings: HUVEC pre-treated with 50 μM compound for one hour, then 800 μM peroxynitrite overnight
Description: The method used is substantially the same as described by Caveda L., et al. (J. Clin. Invest. […]; 98: 886-893).
For the determination of the capacity to inhibit the cytotoxicity induced by oxygen radicals Human Umbilical Vein Endothelial Cells (HUVEC) were used. HUVEC were isolated and cultured in M199 and 20% FCS (Fetal Calf Serum).
Test XTT assay is based on […] by the metabolically active cells of the salt of tetrazolio XTT to form an orange product, the formazan dye formed is soluble and is directly quantified using an spectrophotometer.
HUVEC cells were cultivated until a sub-confluence status in a 96 well tissue culture plate and pre-treated with 50 μM of the compound for one hour. After that, cells were treated with 800 μM of peroxynitrite for an overnight.
After overnight incubation cells were incubated with the yellow XTT solution (final concentration 0.3 mg/ml) for 4 hours. After this incubation period, orange formazan solution was formed, which was spectrophotometrically quantified using an ELISA plate reader at 450 nm
The results are shown in table 15 and are expressed as percentage of death cells.

[6] = Acetyl salicylic acid 100 mg/Kg/day, oral, for 3 days
[7] = artery ring contracted with 1 μM Phenylephrine, mean ± s.d.
[8] = Clopidogrel 1.5 mg/Kg/day, oral for 3 days

CC(=O)Oc1ccccc1C(=O)O [Acetyl salicylic acid]
% of animals protected [1, 6]: (50%)
Rate of animals with thrombotic occlusion [1, 6]: 0.50

O=NS[C@H]1CO[C@H]2[C@@H]1OC[C@H]2O[N+](=O)[O-] [(6), S-nitroso-2-thioisosorbide 5-mononitrate]
EC50 (arterial rings; [7]): 1.2 ± 0.1 µM
IC50 [2]: 1.9 ± 0.5 µM

O=[N+]([O-])O[C@@H]1CO[C@H]2[C@@H]1OC[C@@H]2O [Isosorbide 5-mononitrate, reference compound]
EC50 (arterial rings; [7]): 920 ± 200 µM
IC50 [2]: 2680 ± 330 µM
% of increment of lag phase with respect to control (LDL oxidation) (LDL): 0%
% of increment of lag phase with respect to control (plasma oxidation) [3]: 0%

O=[N+]([O-])O[C@@H]1CO[C@H]2[C@@H]1OC[C@@H]2SC1CCCCO1 (stereo partly drawn) [(7), 2-(tetrahydropyran-2-yl-thio)isosorbide 5-mononitrate]
EC50 (arterial rings; [7]): 50 ± 9 µM
IC50 [2]: 580 ± 21 µM

C[S@+]([O-])[C@H]1CO[C@H]2[C@@H]1OC[C@H]2O[N+](=O)[O-] [(4bis), 2-[(S)-methylsulfinyl]isosorbide 5-mononitrate]
IC50 [2]: 850 ± 150 µM

C[S@@+]([O-])[C@H]1CO[C@H]2[C@@H]1OC[C@H]2O[N+](=O)[O-] [(4), 2-[(R)-methylsulfinyl]isosorbide 5-mononitrate]
EC50 (arterial rings; [7]): 338 ± 10 µM
IC50 [2]: 1000 ± 10 µM
% of animals fully protected [4]: 80%
Protection of S-wave decrement ([5]; 20 mg/kg): 21%
S-wave decrement ([5]; 20 mg/kg): 36.5 ± 11.6 μV
Protection of S-wave decrement ([5]; 100 mg/kg): 87%
S-wave decrement ([5]; 100 mg/kg): 5.9 ± 3.9 μV

CS[C@H]1CO[C@H]2[C@@H]1OC[C@H]2O[N+](=O)[O-] [(3), 2-methylthioisosorbide 5-mononitrate]
EC50 (arterial rings; [7]): 43 ± 6 µM
IC50 [2]: 410 ± 90 µM
% of animals fully protected [4]: 100%
% of death cells (HUVEC cells): 80%

COC(=O)[C@H](c1ccccc1Cl)N1CCc2sccc2C1 [Clopidogrel]
% of animals protected [1, 8]: (50%)
Rate of animals with thrombotic occlusion [1, 8]: 0.50

2-thioisosorbide [(9)]
EC50 (arterial rings; [7]): 24 ± 5 µM
Protection of S-wave decrement ([5]; 20 mg/kg): 64%
S-wave decrement ([5]; 20 mg/kg): 16.5 ± 9.8 μV
Protection of S-wave decrement ([5]; 100 mg/kg): 79%
S-wave decrement ([5]; 100 mg/kg): 9.7 ± 4.6 μV

O=[N+]([O-])O[C@@H]1CO[C@H]2[C@@H]1OC[C@@H]2SS[C@H]1CO[C@H]2[C@@H]1OC[C@H]2O[N+](=O)[O-] [(2), 5,5′-dinitrato-2,2′-dithiodiisosorbide]
EC50 (arterial rings): 5.3 ± 1 µM
IC50 [2]: 10 ± 7 µM
% of increment of lag phase with respect to control (plasma oxidation) [3]: 7 ± 1%
% of death cells (HUVEC cells): 80%
